Measurements taken from patent publication US20250326748A1, “COMPOUNDS AND METHODS FOR MODULATING SPLICING” (REMIX THERAPEUTICS INC., priority 2022, published 2025).
Read-outs that look alike come from different tables or passages of the source.

Columns and labels:
Format in all cases: cell-based, human
HTT mRNA = test: Splicing RT-qPCR assay, HTT canonical (CJ) and alternative (AJ) junction mRNA; details: Homo sapiens; for IC50: canonical junction mRNA; for AC50: alternative junction mRNA, read-out: HTT AJ (AC50, increase in AJ mRNA)
Procedure, shortened: (§1)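 Treatment of A673 or K562 cultures with compounds (eleven-point titration, highest final 10 uM, ≤0.25% DMSO) ran one day at 37 °C. Afterwards cells were lysed directly in the well, and cDNA synthesis coupled with qPCR measured CJ and AJ isoform levels against a reference transcript.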

MYB mRNA = test: Splicing RT-qPCR assay, MYB canonical (CJ) and alternative (AJ) junction mRNA; details: Homo sapiens; for IC50: canonical junction mRNA; for AC50: alternative junction mRNA, read-out: MYB AJ (AC50, increase in AJ mRNA)
Procedure, shortened: as §1

HiBiT-tagged HTT protein = test: HiBiT protein abundance assay, HTT (K562 HiBiT knock-in); details: HiBiT knock-in cells, 24 hours
Procedure, shortened: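 Endogenously HiBiT-tagged K562 knock-in lines treated 24 h at 37 °C with 10-point 3-fold dilutions (top 10 μM final, DMSO ≤0.25%) in IMDM+1% FBS. Lytic Nano-Glo luminescence normalized to DMSO and unmodified K562 controls; four-parameter fit gives 50%-abundance concentration (IC50).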

[1] = 24 h, RT-qPCR, A673 or K562 cells, 24 hours treatment, read-out: HTT CJ (IC50, decrease in CJ mRNA)
[2] = qPCR panel, read-out: HTT CJ (decrease in CJ mRNA levels, IC50)
[3] = RT-qPCR, A673 or K562 cells, 24 hours treatment
[4] = qPCR panel, read-out: MYB CJ (decrease in CJ mRNA levels, IC50)
[5] = RT-qPCR, A673 or K562 cells, 24 hours treatment, read-out: MYB CJ (IC50, decrease in CJ mRNA)

| IC50 (HTT mRNA; [1]) [µM] | IC50 (HTT mRNA; [2]) [µM] | IC50 (MYB mRNA; [4]) [µM] | IC50 (MYB mRNA; [5]) [µM] | IC50 (HiBiT-tagged HTT protein) [µM] | SMILES | AC50 (HTT mRNA; [3]) [µM] | AC50 (MYB mRNA; [3]) [µM] |
| --- | --- | --- | --- | --- | --- | --- | --- |
| 1 to 10 | 1 to 10 | 1 to 10 | 1 to 10 | 1 to 10 | Cn1cc2cc(-c3ccc4cc(N5CC[C@@H](NC(C)(C)C)C5)cnc4n3)c(O)cc2n1 [Compound 199] | 1 to 10 | 1 to 10 |
| < 0.1 | < 0.1 | < 0.1 | < 0.1 | < 0.1 | Cn1cc2cc(-c3cnc4cc(N5CC[C@H](NC6CC6)C5)ccc4n3)c(O)c(F)c2n1 [Compound 176, 5-[6-[(3S)-3-(cyclopropylamino)318quinoxaline-1-yl]318quinoxaline-2-yl]-7-fluoro-2-methyl-indazol-6-ol] | < 0.1 | < 0.1 |
| 1 to 10 | 1 to 10 | < 0.1 | < 0.1 | 0.1 to 1 | C[C@@H]1CN(c2cnc3nc(-c4cc5cn(C)nc5cc4O)cc(Cl)c3c2)C[C@H](C)N1 [Compound 208] | 1 to 10 | < 0.1 |
